Laboratory results as given in patent publication US12030878B2 (BRISTOL-MYERS SQUIBB COMPANY, priority 2017, dated 2024).

Legend:
Assay type in all cases: cell-based
human TLR9 = biological target: T1, human TLR9 (Homo sapiens, UniProt Q9NR96); assay: TLR9 inhibition reporter assay (HEK-Blue SEAP); settings: HEK-Blue cells overexpressing human TLR9, stimulated with ODN2006 5 nM, 22 hour incubation
T1 construct: host or cells: HEK-Blue cells
T1 sequence (Q9NR96 26-1032): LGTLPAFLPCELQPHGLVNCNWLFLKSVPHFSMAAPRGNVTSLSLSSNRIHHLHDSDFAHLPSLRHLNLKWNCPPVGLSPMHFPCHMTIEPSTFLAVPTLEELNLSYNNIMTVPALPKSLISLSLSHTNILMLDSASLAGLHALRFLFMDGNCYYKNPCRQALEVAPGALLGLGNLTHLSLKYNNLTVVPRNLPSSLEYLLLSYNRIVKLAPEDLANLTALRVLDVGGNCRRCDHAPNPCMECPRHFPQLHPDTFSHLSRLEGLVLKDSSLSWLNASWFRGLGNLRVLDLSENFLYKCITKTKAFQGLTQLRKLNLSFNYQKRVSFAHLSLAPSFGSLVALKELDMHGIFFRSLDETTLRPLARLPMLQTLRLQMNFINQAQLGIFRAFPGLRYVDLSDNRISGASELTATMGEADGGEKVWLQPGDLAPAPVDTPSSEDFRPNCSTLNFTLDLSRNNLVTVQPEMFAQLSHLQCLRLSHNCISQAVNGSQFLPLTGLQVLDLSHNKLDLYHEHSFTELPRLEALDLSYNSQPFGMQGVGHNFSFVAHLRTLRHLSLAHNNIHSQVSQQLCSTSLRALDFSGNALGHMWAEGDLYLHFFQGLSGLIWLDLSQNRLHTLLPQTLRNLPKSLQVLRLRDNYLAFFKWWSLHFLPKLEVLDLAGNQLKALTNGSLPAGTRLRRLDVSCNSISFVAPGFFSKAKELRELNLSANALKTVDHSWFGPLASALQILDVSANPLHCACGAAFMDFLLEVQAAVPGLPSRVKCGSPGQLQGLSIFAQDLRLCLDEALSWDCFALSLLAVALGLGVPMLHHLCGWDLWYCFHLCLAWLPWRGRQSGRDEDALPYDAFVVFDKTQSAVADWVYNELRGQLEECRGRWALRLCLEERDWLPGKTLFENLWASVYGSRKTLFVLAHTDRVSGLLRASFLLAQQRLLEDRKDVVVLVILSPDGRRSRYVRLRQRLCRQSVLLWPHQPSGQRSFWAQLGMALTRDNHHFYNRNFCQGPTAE
Summary of the method: (§1)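 HEK-Blue cells with NF-κB/AP-1-driven SEAP reporter; compounds 0.05 nM-50 μM, 30 min pre-treatment at room temperature, then agonist: gardiquimod 7.5 μM (TLR7), R848 15.9 μM (TLR8) or ODN2006 5 nM (TLR9). SEAP read after 22 h at 37 °C; percent inhibition versus agonist-plus-DMSO and reference-inhibitor wells.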

human TLR8 = biological target: T2, human TLR8 (Homo sapiens, UniProt Q9NR97); assay: TLR8 inhibition reporter assay (HEK-Blue SEAP); settings: HEK-Blue cells overexpressing human TLR8, stimulated with R848 15.9 μM, 22 hour incubation
T2 construct: host or cells: HEK-Blue cells
T2 sequence (Q9NR97 27-1041): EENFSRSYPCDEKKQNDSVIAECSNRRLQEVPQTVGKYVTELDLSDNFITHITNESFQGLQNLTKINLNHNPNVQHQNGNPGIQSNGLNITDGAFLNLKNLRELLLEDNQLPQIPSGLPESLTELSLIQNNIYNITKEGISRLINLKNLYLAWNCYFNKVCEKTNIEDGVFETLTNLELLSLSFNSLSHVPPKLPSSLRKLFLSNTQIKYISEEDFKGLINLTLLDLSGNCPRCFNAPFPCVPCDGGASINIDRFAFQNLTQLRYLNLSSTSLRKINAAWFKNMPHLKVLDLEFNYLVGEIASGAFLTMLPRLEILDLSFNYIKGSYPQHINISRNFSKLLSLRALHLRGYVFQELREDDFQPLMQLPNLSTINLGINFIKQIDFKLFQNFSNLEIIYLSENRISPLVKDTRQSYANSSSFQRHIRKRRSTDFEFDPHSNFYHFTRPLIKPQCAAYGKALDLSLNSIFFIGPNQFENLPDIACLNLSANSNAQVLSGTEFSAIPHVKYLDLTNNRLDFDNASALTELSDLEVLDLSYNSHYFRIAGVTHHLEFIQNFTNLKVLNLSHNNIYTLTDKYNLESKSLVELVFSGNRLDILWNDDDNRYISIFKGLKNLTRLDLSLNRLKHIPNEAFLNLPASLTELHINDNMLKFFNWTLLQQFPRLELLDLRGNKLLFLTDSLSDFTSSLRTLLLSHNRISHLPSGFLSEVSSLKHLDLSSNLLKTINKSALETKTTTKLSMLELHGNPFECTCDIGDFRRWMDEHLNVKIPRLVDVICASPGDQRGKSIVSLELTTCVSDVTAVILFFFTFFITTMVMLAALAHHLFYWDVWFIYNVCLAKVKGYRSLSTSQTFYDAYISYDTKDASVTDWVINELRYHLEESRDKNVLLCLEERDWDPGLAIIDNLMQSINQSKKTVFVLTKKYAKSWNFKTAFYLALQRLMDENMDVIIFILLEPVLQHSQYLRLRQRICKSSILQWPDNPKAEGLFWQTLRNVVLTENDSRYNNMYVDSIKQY
Summary of the method: as §1

human TLR7 = biological target: T3, human TLR7 (Homo sapiens, UniProt Q9NYK1); assay: TLR7 inhibition reporter assay (HEK-Blue SEAP); settings: HEK-Blue cells overexpressing human TLR7, stimulated with gardiquimod 7.5 μM, 22 hour incubation
T3 construct: host or cells: HEK-Blue cells
T3 sequence (Q9NYK1 27-1049): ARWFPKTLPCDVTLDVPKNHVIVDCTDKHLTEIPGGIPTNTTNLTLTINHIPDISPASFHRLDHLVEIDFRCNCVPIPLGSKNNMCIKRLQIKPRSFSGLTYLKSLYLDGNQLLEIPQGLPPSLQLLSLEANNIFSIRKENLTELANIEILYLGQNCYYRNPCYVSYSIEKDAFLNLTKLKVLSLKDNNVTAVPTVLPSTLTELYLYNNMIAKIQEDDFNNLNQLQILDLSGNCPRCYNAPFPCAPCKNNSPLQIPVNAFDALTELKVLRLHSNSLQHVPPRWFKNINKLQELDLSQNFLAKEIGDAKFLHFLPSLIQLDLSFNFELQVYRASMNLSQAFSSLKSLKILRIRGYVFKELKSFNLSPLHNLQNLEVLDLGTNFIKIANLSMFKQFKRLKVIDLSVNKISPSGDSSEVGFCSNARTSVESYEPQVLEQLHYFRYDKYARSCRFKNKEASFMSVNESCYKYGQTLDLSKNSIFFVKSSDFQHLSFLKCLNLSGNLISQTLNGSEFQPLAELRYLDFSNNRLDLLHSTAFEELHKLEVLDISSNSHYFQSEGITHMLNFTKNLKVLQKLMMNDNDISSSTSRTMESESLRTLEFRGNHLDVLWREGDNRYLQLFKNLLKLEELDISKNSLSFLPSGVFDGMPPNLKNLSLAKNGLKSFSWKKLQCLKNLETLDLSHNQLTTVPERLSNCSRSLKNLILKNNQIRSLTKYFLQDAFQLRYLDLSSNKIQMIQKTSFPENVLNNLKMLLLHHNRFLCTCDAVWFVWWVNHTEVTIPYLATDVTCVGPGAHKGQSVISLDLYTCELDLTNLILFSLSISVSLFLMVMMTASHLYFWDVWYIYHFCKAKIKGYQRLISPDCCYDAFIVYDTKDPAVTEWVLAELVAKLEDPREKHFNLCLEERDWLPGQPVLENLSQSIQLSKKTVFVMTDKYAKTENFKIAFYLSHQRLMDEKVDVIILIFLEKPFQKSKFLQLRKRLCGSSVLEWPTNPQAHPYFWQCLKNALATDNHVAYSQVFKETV
Summary of the method: as §1

IC50 (human TLR9) [nM]	IC50 (human TLR8) [nM]	IC50 (human TLR7) [nM]	Structure (SMILES)
15300	22.4	50.9	Cc1c(-c2[nH]c3ccc(OCC4CCN(CC(=O)N(C)C)CC4)cc3c2C(C)C)cn(C)c(=O)c1C [Example 88, 2-(4-(((3-isopropyl-2-(1,4,5-trimethyl-6-oxo-1,6-dihydropyridin-3-yl)-1H-indol-5-yl)oxy)methyl)piperidin-1-yl)-N,N-dimethylacetamide]
6870	16.5	7.6	Cc1c(-c2[nH]c3ccc(OCC4CCN(CC(=O)N(C)C)CC4)cc3c2C(C)C)cn2cnnc2c1C [Example 89, 2-(4-(((2-(7,8-dimethyl-[1,2,4]triazolo[4,3-a]pyridin-6-yl)-3-isopropyl-1H-indol-5-yl)oxy)methyl)piperidin-1-yl)-N,N-dimethylacetamide]
12900	13.3	8.3	Cc1c(-c2[nH]c3ccc(OC4CCN(CC(=O)N(C)C)CC4)cc3c2C(C)C)cn2cnnc2c1C [Example 90, 2-(4-((2-(7,8-dimethyl-[1,2,4]triazolo[4,3-a]pyridin-6-yl)-3-isopropyl-1H-indol-5-yl)oxy)piperidin-1-yl)-N,N-dimethylacetamide]
9580	1	0.7	Cc1cc(-c2[nH]c3ccc(OCC4CCN(CCS(C)(=O)=O)CC4)cc3c2C(C)C)cn2ncnc12 [Example 91, 6-(3-isopropyl-5-((1-(2-(methylsulfonyl)ethyl)piperidin-4-yl)methoxy)-1H-indol-2-yl)-8-methyl-[1,2,4]triazolo[1,5-a]pyridine]
6040	3.8	1.2	Cc1cc(-c2[nH]c3ccc(OCC4CN(CCS(C)(=O)=O)C4)cc3c2C(C)C)cn2ncnc12 [Example 92, 6-(3-isopropyl-5-((1-(2-(methylsulfonyl)ethyl)azetidin-3-yl)methoxy)-1H-indol-2-yl)-8-methyl-[1,2,4]triazolo[1,5-a]pyridine]
243	4.7	3	Cc1cc(-c2[nH]c3ccc(OCC4CCCNC4)cc3c2C(C)C)cc(C)n1 (stereo not drawn) [Example 94, 2-(2,6-dimethylpyridin-4-yl)-3-isopropyl-5-(piperidin-3-ylmethoxy)-1H-indole]
419	10.4	0.5	Cc1cc(-c2[nH]c3ccc(OC4CCN(C(=O)CN(C)C)CC4)cc3c2C(C)C)cc(C)n1 [Example 95, 2-(dimethylamino)-1-(4-((2-(2,6-dimethylpyridin-4-yl)-3-isopropyl-1H-indol-5-yl)oxy)piperidin-1-yl)ethanone]
346	9.8	2.6	Cc1cc(-c2[nH]c3ccc(OCC4CCN(C(=O)CN(C)C)CC4)cc3c2C(C)C)cc(C)n1 [Example 96, 2-(dimethylamino)-1-(4-(((2-(2,6-dimethylpyridin-4-yl)-3-isopropyl-1H-indol-5-yl)oxy)methyl)piperidin-1-yl)ethan-1-one]
16800	5.6	3.5	Cc1cc(-c2[nH]c3ccc(OCC4CCN(C(=O)CN(C)C)CC4)cc3c2C(C)C)cn(C)c1=O [Example 97, 5-(5-((1-(dimethylglycyl)piperidin-4-yl)methoxy)-3-isopropyl-1H-indol-2-yl)-1,3-dimethylpyridin-2(1H)-one]
11100	16.5	7.6	Cc1cc(-c2[nH]c3ccc(O[C@H]4CCCN(C(=O)CN(C)C)C4)cc3c2C(C)C)cn(C)c1=O [Example 98, (S)-5-(5-((1-(dimethylglycyl)piperidin-3-yl)oxy)-3-isopropyl-1H-indol-2-yl)-1,3-dimethylpyridin-2(1H)-one]
4870	25.2	3.1	Cc1cc(-c2[nH]c3ccc(O[C@H]4CCCN(C(=O)CN(C)C)C4)cc3c2C(C)C)cn2ncnc12 [Example 99, (S)-2-(dimethylamino)-1-(3-((3-isopropyl-2-(8-methyl-[1,2,4]triazolo[1,5-a]pyridin-6-yl)-1H-indol-5-yl)oxy)piperidin-1-yl)ethan-1-one]
9840	10.4	4.1	Cc1cc(-c2[nH]c3ccc(OC4CCN(C(=O)CN(C)C)CC4)cc3c2C(C)C)cn(C)c1=O [Example 100, 5-(5-((1-(dimethylglycyl)piperidin-4-yl)oxy)-3-isopropyl-1H-indol-2-yl)-1,3-dimethylpyridin-2(1H)-one]
9750	35.9	2.3	Cc1cc(-c2[nH]c3ccc(OC4CCN(C(=O)CN(C)C)CC4)cc3c2C(C)C)cn2ncnc12 [Example 101, 2-(dimethylamino)-1-(4-((3-isopropyl-2-(8-methyl-[1,2,4]triazolo[1,5-a]pyridin-6-yl)-1H-indol-5-yl)oxy)piperidin-1-yl)ethan-1-one]
